Reference: patent US9604987B2, “Synthesis of autophagy inducing compound and the uses thereof” (Hong Kong Baptist University, priority 2012, dated 2017)

How the values were obtained:
Drosophila fat body = assay: Atg8a-EGFP puncta in Drosophila fat body (confocal); type: in vivo; conditions: L3 larvae, 100 μM, 6 hours
Procedure: To further test whether CB6 and CB8 could induce autophagy in vivo, Drosolphila expressing Atg8a-GFP (Atg8a, Drosophila homologue of LC3) are obtained by crossing Cg-GAL4, a GAL4 line drives transgene expression in fat body, with UAS-Atg8a-EGFP. Crossed flies are allowed to lay eggs for 1 hour, 90 hours later, the L3 larvae are collected and treated with 100 μM of Cory B, CB6 and CB8 for 6 hours respectively. After treatment, the fat body lobes of the larvae are harvested with fine forceps and fixed with 4% PFA in PBS at room temperature for 15 minutes. Fat body lobes are then washed with PBS three times and subsequently mounted with VECTASHIELD hardset anti-fade mounting medium. The slides are then subjected to confocal microscopy analysis.
Crossed flies were allowed to lay eggs for 1 hr, 90 hrs later, the L3 larvae were collected for further treatment. The compounds were firstly dissolved in DMSO and then diluted to the desired concentration with ddH2O and then mixed thoroughly with instant fly food. The L3 larvae were placed in the prepared food and received treatment for 6 hrs. After treatment, the fat body lobes of the larvae were harvested with fine forceps and fixed with 4% PFA in PBS at room temperature for 15 min. Fat body lobes were then washed with PBS three times and subsequently mounted with VECTASHIELD hardset antifade mounting medium. […]

N2a Swedish APP cells = assay: APP reduction in N2a Swedish APP cells (western blot); type: cell-based, mouse; conditions: different concentrations, with or without CQ and 3MA
Procedure: (§1) N2a Swedish APP cells are incubated with different concentration of Cory and Cory B in the presence or absence of CQ and 3MA. […] Tg2567 APP mice, 3 months old JNPL P301 Tau mice and WT mice intraperitoneally are administrated with 20 mg/kg/d CoryB.

[1] = tested on: mouse primary cortical neurons; assay: Autophagy in primary mouse cortical neurons (LC3-II blot, GFP-LC3 puncta); type: cell-based, E17 embryonic ICR mice; conditions: 24 hours
Procedure: Primary neuron culture. The E17 embryonic pup brains were dissected and cortices were placed in a Petri dish containing ice cold EBSS, with meninges carefully removed. Tissues were digested in 5 ml of digestion solution (EBSS containing 0.5 mM EDTA (E6758, Sigma), 0.5 mg/ml Papain (3120, Worthington Biochem) and 4 mg/ml L-Cysteine (C7880, Sigma)) at 37° C. for 15 minutes. The tissue was sucked out in 1 ml of digestion solution and mixed with 3 ml of digestion inhibition solution (EBSS containing 5 mg/ml BSA (A2153, Sigma), 5 mg/ml Trypsin inhibitor (T9253, Sigma) and 10 μg/ml DNase (DN25, Sigma)). The mixed tissue solution was thoroughly mixed to dissociate the cells and then transferred to a 50 ml tube through a 70 μm filter. The cells were collected by centrifugation and re-suspended in seeding medium (DMEM containing 10% FBS and 10% horse serum). […]
To further confirm the pro-autophagic effect of Cory B on primary neurons, mouse primary cortical neurons isolated from E17 embryonic ICR mice are used in this study. […] Neurons are fixed in 4% paraformaldehyde and analyzed under a confocal microscope. GFP-LC3 puncta number in each GFP positive neuron is counted and at least 20 neurons in each group is counted. […]

[2] = tested on: α-syn/synphilin-1 aggresomes in N2a cells; assay: α-syn/synphilin-1 aggresome formation in N2a cells; type: cell-based, mouse; conditions: 25 μM, 48 hours
Procedure: α-syn and synphilin-1 are co-expressed in N2a cells to mimic aggresome formation and are treated with 25 μM Cory B or 5 mM 3-MA for 48 hours. Cells are fixed in 4% paraformaldehyde and analyzed under a fluorescence microscope. […] The inhibition of Cory B clearance of various forms of α-syn and α-syn/synphilin-1 aggresomes in the presence of 3-MA further validates that such clearance is via the autophagy pathway. Data are presented as the mean±SEM from 3 independent experiments (***p<0.001, one-way ANOVA for multiple comparison and Tukey's test as post hoc test).

N2a cells = assay: Tandem fluorescent mRFP-GFP-LC3 (Tf-LC3) autophagosome maturation in N2a cells; type: cell-based, mouse; conditions: 25 μM, 24 hours
Description: Therefore, red-only puncta indicates the normal maturation of the autolysosomes. In contrast, co-localization of GFP and RFP puncta indicates impaired fusion between autophagosomes and lysosomes or disruption of lysosome function. Here, this system is utilized and establishes a pattern of GFP and mRFP fluorescence changes in N2a cells after Cory B treatment. Cells are fixed in 4% paraformaldehyde and analyzed under a confocal microscope. […] However, the number of GFP puncta is much lower as compared to mRFP puncta, indicating efficient autophagosome-lysosome maturation and degradation. In cells treated with CQ, there is similar accumulation of GFP and mRFP puncta due to lysosome inhibition. In cells treated with both CQ and Cory B, the number of GFP and mRFP puncta are even more than in the CQ-alone group, but GFP and mRFP puncta numbers are very similar (FIG. 2E, F). The observations further confirm that enhancement of GFP- and RFP-LC3-II puncta expression by Cory B are achieved via autophagy induction flux in neuronal cells rather than inhibiting lysosomal degradation of LC3-II. Results were presented as means±SEM of one representative experiment from three independent repeats (**p<0.01 compare the difference between GFP and RFP puncta in each group, two-way ANOVA for multiple comparison and Bonferroni test as post hoc test).

[3] = tested on: phosphorylated mTOR and P70S6K; assay: Western blot of mTOR pathway and other autophagy pathways in N2a cells; type: cell-based, mouse
Procedure: FIG. 7: Western blot analysis of expression level of phosphorylated mTOR (p-mTOR) or its substrate P70S6K (p-P70S6K) in N2a cells with treatment of 25 μM Cory B or 0.2 μM rapamycin for 6 hours (FIG. 7A); western blot analysis of Beclin 1 expression in N2a cells with non-target or Beclin 1-specific siRNA treatments followed by Cory B (FIG. 7B)
To elucidate the molecular mechanism of Cory B action, the classic autophagy controlling pathway, the mTOR pathway is first examined.

JNPL P301 Tau mice = JNPL P301 Tau mice treated intraperitoneally; type: in vivo; conditions: 20 mg/kg/d intraperitoneally, three months
Procedure: as §1

Structure (SMILES) | autophagy in vivo (Atg8a-EGFP puncta) (Drosophila fat body) | full length and CTF APP (N2a Swedish APP cells) | LC3-II level ([1]; 0-50 μM) | GFP puncta in neurons transfected with GFP-LC3 construct ([1]; 50 μM) | number of α-syn/synphilin-1 aggresomes [2] | GFP and mRFP puncta formation (Tf-LC3) (N2a cells) | number of GFP puncta compared to mRFP puncta (N2a cells) | phosphorylated mTOR and p-P70S6K levels ([3]; 25 μM Cory B or 0.2 μM rapamycin, 6 hours) | AKT, AMPK, MEK/ERK, JNK, ER stress and calcium signaling pathways ([3]; data not shown) | total tau (JNPL P301 Tau mice)
CCCN1C(=O)[C@]2(CCN3C[C@@H](CC)[C@@H](/C(=C\OC)C(=O)OC)C[C@H]32)c2ccccc21 [CB6] | able to induce autophagy | – | – | – | – | – | – | – | – | –
C=CCN1C(=O)[C@]2(CCN3C[C@@H](CC)[C@@H](/C(=C\OC)C(=O)OC)C[C@H]32)c2ccccc21 [CB8] | able to induce autophagy | – | – | – | – | – | – | – | – | –
CC[C@@H]1CN2CC[C@]3(C(=O)Nc4ccccc43)C2C[C@@H]1C(=COC)C(=O)OC (some centres unmarked) [Cory B, Corynoxine B] | – | dose-dependently reduce both full length and CTF APP | dose-dependent increase of LC3-II | induces massive formation of GFP puncta | dramatically decreases the number of α-syn/synphilin-1 aggresomes | induces massive GFP and mRFP puncta formation | much lower | neither phosphorylated mTOR nor its substrate P70S6K are affected | none of the above mentioned pathways are altered | significantly decrease
